Converted amounts (≈) assume the structure as drawn.
Test system: Mycobacterium tuberculosis
Experiment: MMV: CRC and MIC90 against Mtb (replicating)
Format: functional
Conditions: not given

| SMILES | MIC90 [µM] |
| --- | --- |
| N=c1n(CCN2CCCCC2)c2ccccc2n1CC(=O)c1ccc(Cl)c(Cl)c1 | 21.1 (≈ 9.1 µg/mL) |
| COc1ccc(Nc2cc(C)nc(NCc3ccccc3)n2)cc1 | 18 (≈ 5.77 µg/mL) |
| CC(C)(C)CC(C)(C)NCC(O)COc1ccc2c(c1)CCC2 (stereo not given) | 35.6 (≈ 11.4 µg/mL) |
| FC(F)(F)c1cccc(Nc2nc3ccccc3nc2Nc2cccc(C(F)(F)F)c2)c1 | 3.33 (≈ 1.49 µg/mL) |
| COCCNCC(O)Cn1c2ccc(Cl)cc2c2cc(Cl)ccc21 (stereo not given) | 11.6 (≈ 4.26 µg/mL) |
| O=C(Nc1ccc(Br)cc1)Nc1cccc(Cl)c1 | 44.6 (≈ 14.5 µg/mL) |
| OC(CNCc1ccccc1)Cn1c2ccccc2c2ccccc21 (stereo not given) | 20.1 (≈ 6.64 µg/mL) |
| CCOC(=O)c1cnc2ccc(OC)cc2c1Nc1ccc(N2CCN(C)CC2)cc1 | 35.9 (≈ 15.1 µg/mL) |
| Cc1cc(N(C)C)nc(Nc2ccc(NC(=O)Nc3ccccc3)cc2)n1 | 19.3 (≈ 7 µg/mL) |
| Cc1nc2ccccc2c(O)c1CC=C(Cl)Cl | 14.3 (≈ 3.83 µg/mL) |
| O=C(NC1CCN(Cc2ccccc2)CC1)c1cc(-c2ccncc2)nc2ccc(Cl)cc12 | 32.5 (≈ 14.9 µg/mL) |
| O=C(Nc1ccc(F)c(Cl)c1)Nc1ccc(Cl)c(Cl)c1 | 4.03 (≈ 1.34 µg/mL) |
| CCCCCCn1c(=N)n(CC(O)COc2cccc(C)c2)c2ccccc21 (stereo not given) | 9.69 (≈ 3.7 µg/mL) |
| COc1ccc(C2c3ccc4ccccc4c3Oc3ncn(CCCN(C)C)c(=N)c32)cc1 (stereo not given) | 16.9 (≈ 7.45 µg/mL) |
| Cc1ccc(Nc2nc(N)c3ccccc3n2)cc1Cl | 24.7 (≈ 7.03 µg/mL) |
| Cc1cc(N2CCCC2)nc(Nc2ccc(NC(=O)CCc3ccccc3)cc2)n1 | 14 (≈ 5.62 µg/mL) |
| Cc1ccc(Cl)cc1N1CCN(CCCNC(=O)C2CCN(c3nc4ccccc4[nH]3)CC2)CC1 | 39 (≈ 19.3 µg/mL) |
| COc1cccc(Nc2nc(NCCO)c3ccccc3n2)c1 | 27.3 (≈ 8.47 µg/mL) |
| CCN(CC)CCCNc1nc(-c2ccc(Cl)cc2)nc2ccccc12 | 24.7 (≈ 9.11 µg/mL) |
| CC(C)CCNCC(O)Cn1c2ccccc2c2ccccc21 (stereo not given) | 22.9 (≈ 7.11 µg/mL) |
| Cc1ccc(Nc2nc(NCCO)c3ccccc3n2)cc1C | 9.52 (≈ 2.94 µg/mL) |

Test system: Mycobacterium tuberculosis
Experiment: MMV: Screen against Mtb, single point, replicating, at 25uM
Format: functional
Conditions: not given

| SMILES | inhibition at 25 µM [%] |
| --- | --- |
| N=c1n(CCN2CCCCC2)c2ccccc2n1CC(=O)c1ccc(Cl)c(Cl)c1 | 96.3 |
| COc1ccc(Nc2cc(C)nc(NCc3ccccc3)n2)cc1 | 95.5 |
| CC(C)(C)CC(C)(C)NCC(O)COc1ccc2c(c1)CCC2 (stereo not given) | 70.7 |
| FC(F)(F)c1cccc(Nc2nc3ccccc3nc2Nc2cccc(C(F)(F)F)c2)c1 | 97.6 |
| COCCNCC(O)Cn1c2ccc(Cl)cc2c2cc(Cl)ccc21 (stereo not given) | 99.4 |
| O=C(Nc1ccc(Br)cc1)Nc1cccc(Cl)c1 | 59.6 |
| OC(CNCc1ccccc1)Cn1c2ccccc2c2ccccc21 (stereo not given) | 90.3 |
| CCOC(=O)c1cnc2ccc(OC)cc2c1Nc1ccc(N2CCN(C)CC2)cc1 | 78.8 |
| Cc1cc(N(C)C)nc(Nc2ccc(NC(=O)Nc3ccccc3)cc2)n1 | 98.1 |
| Cc1nc2ccccc2c(O)c1CC=C(Cl)Cl | 91 |
| O=C(NC1CCN(Cc2ccccc2)CC1)c1cc(-c2ccncc2)nc2ccc(Cl)cc12 | 66 |
| O=C(Nc1ccc(F)c(Cl)c1)Nc1ccc(Cl)c(Cl)c1 | 97.5 |
| CCCCCCn1c(=N)n(CC(O)COc2cccc(C)c2)c2ccccc21 (stereo not given) | 98.5 |
| COc1ccc(C2c3ccc4ccccc4c3Oc3ncn(CCCN(C)C)c(=N)c32)cc1 (stereo not given) | 98.1 |
| Cc1ccc(Nc2nc(N)c3ccccc3n2)cc1Cl | 96.6 |
| Cc1cc(N2CCCC2)nc(Nc2ccc(NC(=O)CCc3ccccc3)cc2)n1 | 82.1 |
| Cc1ccc(Cl)cc1N1CCN(CCCNC(=O)C2CCN(c3nc4ccccc4[nH]3)CC2)CC1 | 75.7 |
| COc1cccc(Nc2nc(NCCO)c3ccccc3n2)c1 | 81.8 |
| CCN(CC)CCCNc1nc(-c2ccc(Cl)cc2)nc2ccccc12 | 95.3 |
| CC(C)CCNCC(O)Cn1c2ccccc2c2ccccc21 (stereo not given) | 83.6 |
| Cc1ccc(Nc2nc(NCCO)c3ccccc3n2)cc1C | 97.2 |

Test system: not listed separately
Experiment: MMV: Cytotoxicity CRC and LD50 against HepG2
Format: toxicity, cell-based
Conditions: human, HepG2 cells; read-out: LD50 (the source's name)

| SMILES | CC50 [µM] |
| --- | --- |
| N=c1n(CCN2CCCCC2)c2ccccc2n1CC(=O)c1ccc(Cl)c(Cl)c1 | 6.5 |
| COc1ccc(Nc2cc(C)nc(NCc3ccccc3)n2)cc1 | 6.9 |
| CC(C)(C)CC(C)(C)NCC(O)COc1ccc2c(c1)CCC2 (stereo not given) | 8.32 |
| FC(F)(F)c1cccc(Nc2nc3ccccc3nc2Nc2cccc(C(F)(F)F)c2)c1 | 1.59 |
| COCCNCC(O)Cn1c2ccc(Cl)cc2c2cc(Cl)ccc21 (stereo not given) | 3.92 |
| O=C(Nc1ccc(Br)cc1)Nc1cccc(Cl)c1 | 18.6 |
| OC(CNCc1ccccc1)Cn1c2ccccc2c2ccccc21 (stereo not given) | 5.69 |
| CCOC(=O)c1cnc2ccc(OC)cc2c1Nc1ccc(N2CCN(C)CC2)cc1 | 22.8 |
| Cc1cc(N(C)C)nc(Nc2ccc(NC(=O)Nc3ccccc3)cc2)n1 | 11.2 |
| Cc1nc2ccccc2c(O)c1CC=C(Cl)Cl | 98.8 |
| O=C(NC1CCN(Cc2ccccc2)CC1)c1cc(-c2ccncc2)nc2ccc(Cl)cc12 | 7.1 |
| O=C(Nc1ccc(F)c(Cl)c1)Nc1ccc(Cl)c(Cl)c1 | 4.33 |
| CCCCCCn1c(=N)n(CC(O)COc2cccc(C)c2)c2ccccc21 (stereo not given) | 3.27 |
| COc1ccc(C2c3ccc4ccccc4c3Oc3ncn(CCCN(C)C)c(=N)c32)cc1 (stereo not given) | 1.53 |
| Cc1ccc(Nc2nc(N)c3ccccc3n2)cc1Cl | 10.9 |
| Cc1cc(N2CCCC2)nc(Nc2ccc(NC(=O)CCc3ccccc3)cc2)n1 | 2.64 |
| Cc1ccc(Cl)cc1N1CCN(CCCNC(=O)C2CCN(c3nc4ccccc4[nH]3)CC2)CC1 | 4.79 |
| COc1cccc(Nc2nc(NCCO)c3ccccc3n2)c1 | 26 |
| CCN(CC)CCCNc1nc(-c2ccc(Cl)cc2)nc2ccccc12 | 2.72 |
| CC(C)CCNCC(O)Cn1c2ccccc2c2ccccc21 (stereo not given) | 4.74 |
| Cc1ccc(Nc2nc(NCCO)c3ccccc3n2)cc1C | 5.5 |

Test system: Mycobacterium tuberculosis
Experiment: MMV: Screen against Mtb, single point, non replicating, at 25uM
Format: functional
Conditions: not given

| SMILES | inhibition at 25 µM [%] |
| --- | --- |
| N=c1n(CCN2CCCCC2)c2ccccc2n1CC(=O)c1ccc(Cl)c(Cl)c1 | 17.6 |
| COc1ccc(Nc2cc(C)nc(NCc3ccccc3)n2)cc1 | 22.6 |
| CC(C)(C)CC(C)(C)NCC(O)COc1ccc2c(c1)CCC2 (stereo not given) | -3.5 |
| FC(F)(F)c1cccc(Nc2nc3ccccc3nc2Nc2cccc(C(F)(F)F)c2)c1 | 102 |
| COCCNCC(O)Cn1c2ccc(Cl)cc2c2cc(Cl)ccc21 (stereo not given) | 26.7 |
| O=C(Nc1ccc(Br)cc1)Nc1cccc(Cl)c1 | 38.6 |
| OC(CNCc1ccccc1)Cn1c2ccccc2c2ccccc21 (stereo not given) | 14.3 |
| CCOC(=O)c1cnc2ccc(OC)cc2c1Nc1ccc(N2CCN(C)CC2)cc1 | 31.3 |
| Cc1cc(N(C)C)nc(Nc2ccc(NC(=O)Nc3ccccc3)cc2)n1 | 3.62 |
| Cc1nc2ccccc2c(O)c1CC=C(Cl)Cl | 0.782 |
| O=C(NC1CCN(Cc2ccccc2)CC1)c1cc(-c2ccncc2)nc2ccc(Cl)cc12 | 20.6 |
| O=C(Nc1ccc(F)c(Cl)c1)Nc1ccc(Cl)c(Cl)c1 | 100 |
| CCCCCCn1c(=N)n(CC(O)COc2cccc(C)c2)c2ccccc21 (stereo not given) | 31.3 |
| COc1ccc(C2c3ccc4ccccc4c3Oc3ncn(CCCN(C)C)c(=N)c32)cc1 (stereo not given) | 47.1 |
| Cc1ccc(Nc2nc(N)c3ccccc3n2)cc1Cl | 7.17 |
| Cc1cc(N2CCCC2)nc(Nc2ccc(NC(=O)CCc3ccccc3)cc2)n1 | 9.94 |
| Cc1ccc(Cl)cc1N1CCN(CCCNC(=O)C2CCN(c3nc4ccccc4[nH]3)CC2)CC1 | 26.9 |
| COc1cccc(Nc2nc(NCCO)c3ccccc3n2)c1 | 14.8 |
| CCN(CC)CCCNc1nc(-c2ccc(Cl)cc2)nc2ccccc12 | 17.1 |
| CC(C)CCNCC(O)Cn1c2ccccc2c2ccccc21 (stereo not given) | 16.6 |
| Cc1ccc(Nc2nc(NCCO)c3ccccc3n2)cc1C | 7.14 |

Test system: Mycobacterium tuberculosis
Experiment: MMV: CRC and MIC90 against Mtb (non replicating)
Format: functional
Conditions: not given

| SMILES | MIC90 [µM] |
| --- | --- |
| N=c1n(CCN2CCCCC2)c2ccccc2n1CC(=O)c1ccc(Cl)c(Cl)c1 | > 100 |
| COc1ccc(Nc2cc(C)nc(NCc3ccccc3)n2)cc1 | > 100 |
| CC(C)(C)CC(C)(C)NCC(O)COc1ccc2c(c1)CCC2 (stereo not given) | > 100 |
| FC(F)(F)c1cccc(Nc2nc3ccccc3nc2Nc2cccc(C(F)(F)F)c2)c1 | 5.75 (≈ 2.58 µg/mL) |
| COCCNCC(O)Cn1c2ccc(Cl)cc2c2cc(Cl)ccc21 (stereo not given) | 56.1 (≈ 20.6 µg/mL) |
| O=C(Nc1ccc(Br)cc1)Nc1cccc(Cl)c1 | > 100 |
| OC(CNCc1ccccc1)Cn1c2ccccc2c2ccccc21 (stereo not given) | > 100 |
| CCOC(=O)c1cnc2ccc(OC)cc2c1Nc1ccc(N2CCN(C)CC2)cc1 | > 100 |
| Cc1cc(N(C)C)nc(Nc2ccc(NC(=O)Nc3ccccc3)cc2)n1 | > 100 |
| Cc1nc2ccccc2c(O)c1CC=C(Cl)Cl | > 100 |
| O=C(NC1CCN(Cc2ccccc2)CC1)c1cc(-c2ccncc2)nc2ccc(Cl)cc12 | > 100 |
| O=C(Nc1ccc(F)c(Cl)c1)Nc1ccc(Cl)c(Cl)c1 | 11 (≈ 3.67 µg/mL) |
| CCCCCCn1c(=N)n(CC(O)COc2cccc(C)c2)c2ccccc21 (stereo not given) | 27.9 (≈ 10.6 µg/mL) |
| COc1ccc(C2c3ccc4ccccc4c3Oc3ncn(CCCN(C)C)c(=N)c32)cc1 (stereo not given) | > 100 |
| Cc1ccc(Nc2nc(N)c3ccccc3n2)cc1Cl | > 100 |
| Cc1cc(N2CCCC2)nc(Nc2ccc(NC(=O)CCc3ccccc3)cc2)n1 | > 100 |
| Cc1ccc(Cl)cc1N1CCN(CCCNC(=O)C2CCN(c3nc4ccccc4[nH]3)CC2)CC1 | > 100 |
| COc1cccc(Nc2nc(NCCO)c3ccccc3n2)c1 | > 100 |
| CCN(CC)CCCNc1nc(-c2ccc(Cl)cc2)nc2ccccc12 | > 100 |
| CC(C)CCNCC(O)Cn1c2ccccc2c2ccccc21 (stereo not given) | > 100 |
| Cc1ccc(Nc2nc(NCCO)c3ccccc3n2)cc1C | 82.6 (≈ 25.5 µg/mL) |
